Source: patent US11931332B2, “Phenyl alkyl carbamate compounds for use in preventing or treating neurodegenerative disease” (priority 2020, dated 2024)

Experiments:
[1] = system: rotenone-induced Parkinson's disease model mice; assay: Foot printing assay (stride length) in rotenone-induced Parkinson's disease model mice; type: in vivo, C57BL/6 mice; details: rotenone 30 mg/kg orally, Example 124 40 mg/kg IP once a day for 35 days
Method: (§1) C57BL/6 mice (n=61) were purchased from Samtako bio korea Co. Ltd (Osan, Korea.) Mice were housed in the room which offers 12 hours light/dark cycle with a temperature of 20˜22° C.
(§2) Mice were randomly divided into four groups: • Group 1: vehicle control mice, • Group 2: Compound of Example 124—treated mice, • Group 3: rotenone treated mice, • Group 4: Compound of Example 124—rotenone treated mice.
(§3) Rotenone was suspended in 0.5% Carboxymethyl cellulose (CMC) sodium salt. Compound of Example 124 were dissolved in Tween 80. 0.5% CMC and Rotenone (30 mg/kg) were administered orally, the compound of Example 124 (40 mg/kg) was injected intraperitoneally (IP) once a day for 35 days (5 weeks).
(§4) In the present invention, in order to confirm whether the compound of Example 124 (compound 124) improves the motor abnormalities found in rotenone-induced Parkinson's disease model mice, rota-rod test, pole test, and foot printing assay test were performed.
Foot printing assay was performed using the Parkinson's disease model mice of Biological Experiment Example 1 as follows. Mice paws were dipped with non-toxic water paints (forelimbs in green and hind limbs in blue). Mice were placed in the corner of the enclosed maze with white paper lined through the maze and allowed to walk along the maze freely. […] Fore limb-stride length and hind limb-stride length were measured using ImageJ (NIH).

Iba-1-positive microglia = assay: Iba-1 immunohistochemistry, activation level of microglia in striatum of rotenone mice; type: in vivo, C57BL/6 mice
Method: as §2, §3
(§5) Specifically, mice of Biological Experiment Example 1 were anesthetized with sevoflurane and perfused with PBS (phosphate-buffered saline). […]
(§6) To determine whether the compound of Example 124 affects regulating the activities of Rotenone-induced reactive astrocyte and microglia, in the present invention, obtained images of brain tissues stained with GFAP (Astrocyte marker) and Iba-1(microglia marker) antibodies. Through acquired images analyzed the activation level of astrocytes and microglia respectively by measuring fluorescent intensity. […]
(§7) All the images were taken using a fluorescence microscope (Leica DM LB2). […] The signal intensity of GFAP and Iba-1 was measured in the chosen fields of the equal area using Image J.

[2] = system: Tyrosine hydroxylase (TH); assay: Western blotting of tyrosine hydroxylase (TH) in ventral midbrain protein of rotenone mice; type: in vivo, C57BL/6 mice; details: rotenone 30 mg/kg orally, Example 124 40 mg/kg IP once a day for 35 days, FIG. 3(C-D)
Method: as §2, §3
(§8) Whole ventral midbrain was homogenized with RIPA buffer containing 1% Triton X 100, 0.5% deoxycholic acid, 0.2% SDS, 150 mM NaCl, 2 mM EDTA, protease inhibitors (PMSF, Aprotinin, NaF, Na3VO4). The homogenate was centrifuged at 13,000 rpm for 30 min on a rotator and the supernatant was used [Vergara, C., et al., Amyloid-beta pathology enhances pathological fibrillary tau seeding induced by Alzheimer PHF in vivo. Acta Neuropathol, 2019. 137(3): p. 397-412.]. Proteins were separated using SDS-PAGE with a concentration gradient of 8-20% SDS gels and transferred onto PVDF membranes (Immobilon P membrane, Millipore). Membranes blocked in 5% skim milk in TBST (Tris-Buffered saline-Tween®20) and immunolabeled with primary antibody, rabbit anti-tyrosine hydroxylase (TH) antibody (1:5000)). […]
(§9) Western blot data were analyzed using a t-test(1-tailed t-test). […]

[3] = system: TH+ neurons (dopaminergic neurons); assay: Immunohistochemistry with tyrosine hydroxylase (TH) antibody, counting of TH+ neurons in rotenone mice; type: in vivo, C57BL/6 mice; details: rotenone 30 mg/kg orally, Example 124 40 mg/kg IP once a day for 35 days, FIG. 3(A-B)
Method: as §2, §3
Dopaminergic neuron loss has been implicated in motor dysfunction in Parkinson's disease. In the present invention, stained the striatum with Tyrosine hydroxylase (TH) antibody to check out whether compound of Example 124 prevents the TH+ neuron cell death by rotenone.
as §5
All the images were taken using a fluorescence microscope (Leica DM LB2). To determine the loss of TH positive neurons and the prevention effect of the compound of Example 124 in the striatum, TH+ neurons were counted by using a cell counter plugin from ImageJ software (NIH).
Immunofluorescence images were analyzed using one-way ANOVA and post hoc analysis using Tukey's post hoc test (GraphPad Prism). […]

Amyloid-beta (Aβ) [4] = assay: Immunofluorescence of amyloid-beta in primary cultured cortical neurons; type: cell-based; details: primary cortical neurons treated with amyloid-beta and Example 124 (4 uM) together; FIG. 8
Method: Primary cortical neurons were harvested from the E12-14 embryo. Briefly, isolated cortices were incubated for 20 min at 37° C. in HBSS with 0.25% trypsin-EDTA, 0.1% DNase I. The cortices were dissociated by trituration in NBA media (Neurobasal medium with 2% B27, 2 mM 1-glutamine, and 1% penicillin/streptomycin). Cells were plated in poly-D-lysine coated 24-well plates at 50,000 cells/well. After 3 days of culture, Amyloid-beta and compound of Example 124 (4 uM) were treated.
Cortical neurons were fixed for 15 min at room temperature with 4% paraformaldehyde and 4% sucrose in PBS solution. Fixed neurons were incubated with blocking buffer (3% goat serum, 3% BSA in PBS-T (0.15% Triton-X100)) for 30 min at room temperature. After labeling with a primary antibody, cells were incubated with Alexa Fluor 488- or 568-conjugated secondary antibody. Aβ (6e10, Covance, 1:3000) and NeuN (abl77487, Abcam, 1:2000) were used as primary antibody.

[5] = system: phosphorylated tau (p-Tau s262); assay: Western blotting of phosphorylated tau (p-Tau s262) in rotenone mice; type: in vivo, C57BL/6 mice; details: Example 124-rotenone-treated group vs rotenone-vehicle group; not significantly; FIG. 4
Method: as §2, §3, §8, §9

GFAP-positive astrocytes = assay: GFAP immunohistochemistry, activation level of astrocytes in striatum of rotenone mice; type: in vivo, C57BL/6 mice; details: rotenone 30 mg/kg orally, Example 124 40 mg/kg IP once a day for 35 days, FIG. 6
Method: as §2, §3, §5, §6, §7

[6] = system: rotenone-induced Parkinson's disease model mice; assay: Pole test in rotenone-induced Parkinson's disease model mice; type: in vivo, C57BL/6 mice; details: rotenone 30 mg/kg orally, Example 124 40 mg/kg IP once a day for 35 days; vs rotenone group; not significantly; FIG. 1(B-C)
Method: as §1, §2, §3, §4
Pole test was performed using the Parkinson's disease model mice of Biological Experiment Example 1 as follows. […] Each trial was recorded through the camera locating in front of the pole. The time mice turned upside down (head down) and the time it completely climbs down the pole was measured through a recorded video file manually by using the software Boris. Results from manually counted files were scored and presented.

[7] = system: Phosphorylated alpha-synuclein (s129); assay: Double immunostaining for TH and p-α-synuclein, inclusions in cell bodies of TH+ neurons of rotenone mice; type: in vivo, C57BL/6 mice; details: rotenone 30 mg/kg orally, Example 124 40 mg/kg IP once a day for 35 days; FIG. 5(A-B)
Method: as §2, §3
Specifically, mice of Biological Experiment Example 1 were anesthetized with sevoflurane and perfused with PBS (phosphate-buffered saline). After perfusion, dissected the left hemisphere of the brain from the mice and fixed the right hemisphere brain with 4% PFA for 1 day [Shin, S. J., et al., Jowiseungchungtang Inhibits Amyloid-beta Aggregation and Amyloid-beta-Mediated Pathology in 5XFADMice. Int J Mol Sci, 2018. 19(12).]. The frozen brain was sectioned in the coronal way (30 μm thick) using a cryostat (Leica CM3000, Leica Microsystems, Nussloch, Germany). Sections were stored at deep freezer (−70° C.) until the immunohistochemistry analysis starts.
In all immunofluorescence labeling procedures, rinsed off the brain sections and blocked the tissues with cold PBST (0.1% Triton X-100 in PBS) containing 5% BSA and 5% goat serum at room temperature. […]

Amyloid-beta (Aβ) [8] = assay: Anti-Aβ staining of brain tissue sections (choroid plexus cells) of treated mice; type: in vivo, C57BL/6 mice; details: orally administered for 6 weeks; vs vehicle (30% PEG400) mice; FIG. 9
Method: Amyloid-beta (Aβ) is a substance that is naturally produced and degraded In Vivo. Therefore, in the present invention, it was attempted to determine whether Amyloid-beta production was reduced in the compound of Example 124-treated mice.
C57BL/6 mice were purchased from Samtako bio Korea Co. Ltd (Osan, Korea.) Mice were housed in the room which offers a 12 hours light/dark cycle with a temperature of 20˜22° C. All experiments and animal care were approved by the Institutional Animal Care and Use Committee of Chonnam National University (Korea).
Mice were divided into a vehicle mice group and a drug-treated group, and then the vehicle (30% PEG400) or compound of Example 124 was orally administered for 6 weeks.
Mice were anesthetized with sevoflurane and perfused with PBS. After perfusion, the right hemisphere brain was fixed with 4% paraformaldehyde for one day. The frozen brains were sectioned at 30 um thickness. The tissue sections were blocked with 3% Goat serum and 3% BSA in cold PBS-T (0.15% Tx-100) for 30 min. Sections were then stained using anti-Aβ (ab5078p, millipore) 1:3000 in PBS. After 3 days of primary antibody labeling, sections were incubated with an Alexa Fluor 568 conjugated secondary antibody for 1 day. For each mouse, 8-10 tissue sections were quantified, and the Aβ intensity was measure at 15 choroid plexus cells. The measurement was done using Image J software.

[9] = system: Acetylated alpha-tubulin (Ace-α-tubulin); assay: Western blotting of acetylated alpha-tubulin in rotenone mice; type: in vivo, C57BL/6 mice; details: Example 124-rotenone-treated group; differences between groups not significant; FIG. 4
Method: as §2, §3, §8, §9

[10] = system: Amyloid-beta precursor protein (APP); assay: Western blot of APP in Alzheimer's disease in vitro model (SH-SY5Y cells transfected with pcDNA3-APPswe); type: cell-based, human; details: Example 124 100 uM, harvested 24 h after treatment, FIG. 7
Method: In the present invention, the amyloid-beta precursor protein (APP) reduction effect of the compound of Example 124 in an In Vitro model of Alzheimer's disease (AD) was confirmed.
SH-SY5Y, a human neuroblastoma cell line, was used, and when the pcDNA3-APPswe vector was transfected, these cells generate an AD-inducing APP.
SH-SY5Y cells were incubated in DMEM with 10% FBS and 1% penicillin/streptomycin. 500,000 cells/well was plated in a 6 well plate and transfected 24 h later.
Cells were transfected with pcDNA3-APPswe or pcDNA3 vectors using Lipofectamine 2000 (Invitrogen). After 4 h incubation, the transfection mixture (Lipofectamine+Vector) was replaced with 10% FBS in DMEM. compound of Example 124 (100 uM) or vehicle was treated in 20 h after transfection.
Cells were harvested 24 h after the compound of Example 124 treatments. Cells were washed twice with ice-cold PBS and lysed in RIPA buffer (1% Triton X-100, 0.5% deoxycholic acid, 0.2% SDS, 150 mM sodium chloride, 2 mM EDTA) with 1 mM PMSF, 2 ug/ml aprotinin, 10 ug/ml leupeptin, and 10 mM sodium fluoride.
The lysate was passed several times through a 26½-gauge syringe needle and centrifuged at 16,200*g for 20 min. The supernatant was quantified with the Bradford assay. 30 ug of protein samples, separated by SDS-PAGE, were transferred to the PVDF membrane. […]

With `CO[C@@H](c1ccccc1Cl)[C@H](C)OC(N)=O` [Example 124, 1-(2-chlorophenyl)-(S)-1-methoxypropyl-(S)-2-carbamate] the “stride length of forepaw” value ([1]; FIG. 2(A)) was “ameliorated”, the “stride length of hind paw” value ([1]; FIG. 2(B)) was “ameliorated” and the “efficacy in microglia compared with astrocytes (relative Iba-1 and GFAP intensity)” value (Iba-1-positive microglia; FIG. 6(C-D)) was “more dramatic and obvious in microglia than in astrocytes”. For the same molecule, the “activation of microglia by rotenone (Iba-1 intensity)” value (Iba-1-positive microglia; rotenone 30 mg/kg orally, Example 124 40 mg/kg IP once a day for 35 days, FIG. 6) was “attenuated”, the “tyrosine hydroxylase (TH) expression (TH/B-actin)” value [2] was “increased” and the “rotenone-induced TH+ cell death (number of TH positive cells)” value [3] was “significantly blocked”. For the same molecule, the amount of amyloid-beta (Amyloid-beta (Aβ) [4]) was “decreased”, the “phosphorylation of tau protein (p-Tau s262)” value [5] was “decreased” and the “activation of astrocytes by rotenone (GFAP intensity)” value (GFAP-positive astrocytes) was “attenuated”. For the same molecule, the “pole test: time climbing down the pole / score” value [6] was “slightly attenuated”, the “accumulation of α-synuclein in the soma (p-α-synuclein inclusions in TH+ neurons)” value [7] was “dramatically decreased” and the “amount of endogenous amyloid-beta (Aβ intensity)” value (Amyloid-beta (Aβ) [8]) was “reduced”. For the same molecule, the α-tubulin acetylation levels [9] was “increase” and the “amount of APP protein (APP/B-actin)” value [10] was “decreased”.
